From US20240067632A1, “WEE1 Degrading Compounds and Uses Thereof” (Bristol-Myers Squibb Company, priority 2022, published 2024)
Read-outs that look alike come from different tables or passages of the source.

Tests used:
MKN45 cells = assay: MKN45 cell proliferation assay (Cell-Titer-Glo, 120 h); assay type: cell-based; details: for EC50: Homo sapiens, MKN-45, 120 h, Cell-Titer-Glo, read-out: MKN45 Cell Prolif. 120 hr (EC50); for MKN45 Cell Prolif. 120 hr (Ymin-Obs): minimal percent of DMSO control observed in the concentrations tested
Procedure, shortened: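 Growth inhibition was read as blank-corrected Cell-Titer-Glo luminescence expressed as percent DMSO control after 120 h at 37 C, 400 cells/well. Compounds tested in triplicate as 10-point half-log series from 1 or 10 uM, 0.1% DMSO; four-parameter fit gave EC50, and lowest observed percent control was reported as Ymin-obs.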

WEE1 = target: T1, WEE1 (Homo sapiens, UniProt P30291+Q96SW2); assay: WEE1-ePL degradation assay (LentiX-WEE1-ePL-GSPT1-ND cells, InCELL Hunter luminescence, 4 h); assay type: cell-based; details: 293T-LentiX WEE1-ePL cells; for DC50: read-out: 293T-LentiX WEE1-ePL Degradation 4 hr (EC50)
T1 construct: C-terminal ePL-tagged (DiscoverX, Fremont, CA) full-length WEE1 expression construct; expressed in transfected cells; host or cells: LentiX-HEK293T (Invitrogen), lentiviral transduction; co-expressing GSPT1-GN (G576N, lacking the first 158 amino acids)
Procedure, shortened: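 Degradation EC50 was fitted by a four-parameter logistic model, with the upper limit taken from DMSO wells. Luminescence was read with InCELL Hunter reagent after 30 min at room temperature, following a 4 h, 37° C exposure of 2500 cells/well. Cells were LentiX-HEK293T carrying ePL-tagged full-length WEE1, dosed in 10 points (3-fold) from 1 or 10 uM.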

[1] = lower limit of the fit (0 = luciferase inhibitor, Ymax = DMSO control)
[2] = lower limit of the fit (Ymin=0 luciferase inhibitor, Ymax DMSO control)

| Structure (SMILES) | EC50 (MKN45 cells; growth inhibition) [nM] | 293T-LentiX WEE1-ePL Degradation 4 hr (Ymin) (WEE1; [1]) | DC50 (WEE1) [nM] | EC50 (MKN45 cells) [nM] | 293T-LentiX WEE1-ePL Degradation 4 hr (Ymin) (WEE1; [2]) | MKN45 Cell Prolif. 120 hr (Ymin-Obs) (MKN45 cells) |
| --- | --- | --- | --- | --- | --- | --- |
| CC1(C)C[C@@H](c2ncc3cc(CN4CC[C@H](Oc5ccc6c(c5)CN(C5CCC(=O)NC5=O)C6=O)C4)ccc3n2)CCO1 (stereo partly drawn) [3-(5-{[(3S)-1-({2-[(4S)-2,2-dimethyloxan-4-yl]quinazolin-6-yl}methyl)pyrrolidin-3-yl]oxy}-1-oxo-2,3-dihydro-1H-isoindol-2-yl)piperidine-2,6-dione] | 9.52 | 31 | 43.4 |  |  | 8.354 |
| O=C1CCC(N2Cc3cc(O[C@@H]4CN(Cc5ccc6nc([C@@H]7CCOC7)ccc6c5)C[C@@H]4F)ccc3C2=O)C(=O)N1 (stereo partly drawn) [3-(5-{[(3R,4S)-4-fluoro-1-({2-[(3S)-oxolan-3-yl]quinolin-6-yl}methyl)pyrrolidin-3-yl]oxy}-1-oxo-2,3-dihydro-1H-isoindol-2-yl)piperidine-2,6-dione] |  |  | 5.69 | 9.42 | 33.6 | 10.88 |
| CC1(C)CN(c2ncc3cc(CN4CC[C@H](Oc5ccc6c(c5)CN(C5CCC(=O)NC5=O)C6=O)C4)ccc3n2)CCO1 (stereo partly drawn) [3-(5-{[(3S)-1-{[2-(2,2-dimethylmorpholin-4-yl)quinazolin-6-yl]methyl}pyrrolidin-3-yl]oxy}-1-oxo-2,3-dihydro-1H-isoindol-2-yl)piperidine-2,6-dione] | 7.67 | 31 | 11.6 |  |  | 9.381 |
| CO[C@H]1CC[C@](C)(Nc2ccc3cc(CN4CC[C@H](Oc5ccc6c(c5)CN(C5CCC(=O)NC5=O)C6=O)C4)ccc3n2)CC1 (stereo partly drawn) [3-(1-oxo-5-{[(3S)-1-[(2-{[(1r,4r)-4-methoxy-1-methylcyclohexyl]amino}quinolin-6-yl)methyl]pyrrolidin-3-yl]oxy}-2,3-dihydro-1H-isoindol-2-yl)piperidine-2,6-dione] | 4.2 | 30 | 5.36 |  |  | 8.155 |
| CO[C@@H]1CCC[C@H]1c1ccc2cc(CN3CC[C@H](Oc4ccc5c(c4)CN(C4CCC(=O)NC4=O)C5=O)C3)ccc2n1 (stereo partly drawn) [3-(5-{[(3S)-1-({2-[(1S,2R)-2-methoxycyclopentyl]quinolin-6-yl}methyl)pyrrolidin-3-yl]oxy}-1-oxo-2,3-dihydro-1H-isoindol-2-yl)piperidine-2,6-dione] |  |  | 3.01 | 12 | 37.17 | 13.63 |
| O=C1CC[C@@H](N2Cc3cc(O[C@H]4CCN(Cc5cc(F)c6nc(C7CCOCC7)ccc6c5)C4)ccc3C2=O)C(=O)N1 [(3R)-3-(5-{[(3S)-1-{[8-fluoro-2-(oxan-4-yl)quinolin-6-yl]methyl}pyrrolidin-3-yl]oxy}-1-oxo-2,3-dihydro-1H-isoindol-2-yl)piperidine-2,6-dione] |  |  | 9.49 | 2.19 | 32.17 | 9.2 |
| O=C1CCC(N2Cc3cc(O[C@H]4CCN(Cc5ccc6nc(COC7COC7)ccc6c5)C4)ccc3C2=O)C(=O)N1 (stereo partly drawn) [3-(5-{[(3S)-1-({2-[(oxetan-3-yloxy)methyl]quinolin-6-yl}methyl)pyrrolidin-3-yl]oxy}-1-oxo-2,3-dihydro-1H-isoindol-2-yl)piperidine-2,6-dione] | 5.37 | 23.84 | 122 |  |  | 9.252 |
| COC[C@H]1CCCC[C@@H]1c1ccc2cc(CN3CC[C@H](Oc4ccc5c(c4)CN(C4CCC(=O)NC4=O)C5=O)C3)ccc2n1 (stereo partly drawn) [3-(5-{[(3S)-1-({2-[(1S,2S)-2-(methoxymethyl)cyclohexyl]quinolin-6-yl}methyl)pyrrolidin-3-yl]oxy}-1-oxo-2,3-dihydro-1H-isoindol-2-yl)piperidine-2,6-dione] |  |  | 3.03 | 1.43 | 21.7 | 11.37 |
| O=C1CCC(N2Cc3cc(O[C@H]4CCN(Cc5ccc6nc(N7CCC(O)CC7)ccc6c5)C4)ccc3C2=O)C(=O)N1 (stereo partly drawn) [3-(5-{[(3S)-1-{[2-(4-hydroxypiperidin-1-yl)quinolin-6-yl]methyl}pyrrolidin-3-yl]oxy}-1-oxo-2,3-dihydro-1H-isoindol-2-yl)piperidine-2,6-dione] | 6.59 | 34.5 | 2.86 |  |  | 9.69 |
| CO[C@H]1CCCC[C@@H]1c1ccc2cc(CN3CC[C@H](Oc4ccc5c(c4)CN(C4CCC(=O)NC4=O)C5=O)C3)ccc2n1 (stereo partly drawn) [3-(5-{[(3S)-1-({2-[(1R,2S)-2-methoxycyclohexyl]quinolin-6-yl}methyl)pyrrolidin-3-yl]oxy}-1-oxo-2,3-dihydro-1H-isoindol-2-yl)piperidine-2,6-dione] |  |  | 4.52 | 7.63 | 25.39 | 23.82 |
| O=C1CCC(N2Cc3cc(O[C@H]4CCN(Cc5ccc6ncc(F)cc6c5F)C4)ccc3C2=O)C(=O)N1 (stereo partly drawn) [3-(5-{[(3S)-1-[(3,5-difluoroquinolin-6-yl)methyl]pyrrolidin-3-yl]oxy}-1-oxo-2,3-dihydro-1H-isoindol-2-yl)piperidine-2,6-dione] | 38.3 | 28.96 | 8.71 |  |  | 12.86 |
| O=C1CCC(N2Cc3cc(O[C@H]4CCN(Cc5cnc6c(c5)COCC6)C4)ccc3C2=O)C(=O)N1 (stereo partly drawn) [3-(1-oxo-5-{[(3S)-1-({5H,7H,8H-pyrano[4,3-b]pyridin-3-yl}methyl)pyrrolidin-3-yl]oxy}-2,3-dihydro-1H-isoindol-2-yl)piperidine-2,6-dione] | 456 | 35 | 39.9 |  |  | 11.67 |
| O=C1CCC(N2Cc3cc(O[C@@H]4CN(Cc5ccc6nc(C7CCOCC7)ccc6c5)C[C@@H]4F)ccc3C2=O)C(=O)N1 (stereo partly drawn) [3-(5-{[(3R,4S)-4-fluoro-1-{[2-(oxan-4-yl)quinolin-6-yl]methyl}pyrrolidin-3-yl]oxy}-1-oxo-2,3-dihydro-1H-isoindol-2-yl)piperidine-2,6-dione] | 7.13 | 36 | 13.2 |  |  | 8.923 |

Now from value to compound, other results behind:

| EC50 (MKN45 cells; growth inhibition) [nM] | 293T-LentiX WEE1-ePL Degradation 4 hr (Ymin) (WEE1; [1]) | DC50 (WEE1) [nM] | EC50 (MKN45 cells) [nM] | 293T-LentiX WEE1-ePL Degradation 4 hr (Ymin) (WEE1; [2]) | Structure (SMILES) | MKN45 Cell Prolif. 120 hr (Ymin-Obs) (MKN45 cells) |
| --- | --- | --- | --- | --- | --- | --- |
| 2.98 | 32.5 | 2.6 |  |  | COC(C)(C)c1ccc2cc(CN3CC[C@H](Oc4ccc5c(c4)CN(C4CCC(=O)NC4=O)C5=O)C3)ccc2n1 (stereo partly drawn) [3-(5-{[(3S)-1-{[2-(2-methoxypropan-2-yl)quinolin-6-yl]methyl}pyrrolidin-3-yl]oxy}-1-oxo-2,3-dihydro-1H-isoindol-2-yl)piperidine-2,6-dione] | 6.21 |
| 6.03 | 34.33 | 2.21 |  |  | O=C1CCC(N2Cc3cc(O[C@H]4CCN(Cc5ccc6nc(C7CC7)ccc6c5)C4)ccc3C2=O)C(=O)N1 (stereo partly drawn) [3-(5-{[(3S)-1-[(2-cyclopropylquinolin-6-yl)methyl]pyrrolidin-3-yl]oxy}-1-oxo-2,3-dihydro-1H-isoindol-2-yl)piperidine-2,6-dione] | 12.12 |
| 2.96 | 28 | 1.41 |  |  | O=C1CCC(N2Cc3cc(O[C@H]4CCN(Cc5cc6ccc([C@H]7CCOC7)cc6cn5)C4)ccc3C2=O)C(=O)N1 (stereo partly drawn) [3-(1-oxo-5-{[(3S)-1-({7-[(3R)-oxolan-3-yl]isoquinolin-3-yl}methyl)pyrrolidin-3-yl]oxy}-2,3-dihydro-1H-isoindol-2-yl)piperidine-2,6-dione] | 8.5 |
|  |  | 2.46 | 6.01 | 28.06 | N#Cc1ccc2cc(CN3CC[C@H](Oc4ccc5c(c4)CN([C@H]4CCC(=O)NC4=O)C5=O)C3)ccc2n1 [6-{[(3S)-3-({2-[(3S)-2,6-dioxopiperidin-3-yl]-1-oxo-2,3-dihydro-1H-isoindol-5-yl}oxy)pyrrolidin-1-yl]methyl}quinoline-2-carbonitrile] | 14.78 |
| 4.9 | 32.6 | 2.83 |  |  | O=C1CCC(N2Cc3cc(O[C@H]4CCN(Cc5ccc6nc(C7CCOCC7)ccc6c5)C4)ccc3C2=O)C(=O)N1 (stereo partly drawn) [3-(5-{[(3S)-1-{[2-(oxan-4-yl)quinolin-6-yl]methyl}pyrrolidin-3-yl]oxy}-1-oxo-2,3-dihydro-1H-isoindol-2-yl)piperidine-2,6-dione] | 12.83 |
|  |  | 2.76 | 2.17 | 26.77 | O=C1CC[C@H](N2Cc3cc(O[C@@H]4CN(Cc5cc6ccc(C7CCOCC7)cc6cn5)CC4(F)F)ccc3C2=O)C(=O)N1 [(3S)-3-(5-{[(3R)-4,4-difluoro-1-{[7-(oxan-4-yl)isoquinolin-3-yl]methyl}pyrrolidin-3-yl]oxy}-1-oxo-2,3-dihydro-1H-isoindol-2-yl)piperidine-2,6-dione] | 9.546 |
